Results: ChEMBL document CHEMBL4507329, “Data for DCP probe BTZO-1” (2021)

Key:
[1] = molecular target: Mitogen-activated protein kinase 10 (Homo sapiens) (UniProt P53779); conditions: Compound concentration 1000.0 nM
[2] = molecular target: Ribosomal protein S6 kinase alpha-3 (Homo sapiens) (UniProt P51812); conditions: Compound concentration 1000.0 nM
[3] = molecular target: Serine/threonine-protein kinase Nek10 (Homo sapiens) (UniProt Q6ZWH5); conditions: Compound concentration 1000.0 nM
[4] = molecular target: Discoidin domain-containing receptor 2 (Homo sapiens) (UniProt Q16832); conditions: Compound concentration 1000.0 nM
[5] = molecular target: Myosin light chain kinase family member 4 (Homo sapiens) (UniProt Q86YV6); conditions: Compound concentration 1000.0 nM
Chain of Myosin light chain kinase family member 4 (Homo sapiens) (Q86YV6 whole entry): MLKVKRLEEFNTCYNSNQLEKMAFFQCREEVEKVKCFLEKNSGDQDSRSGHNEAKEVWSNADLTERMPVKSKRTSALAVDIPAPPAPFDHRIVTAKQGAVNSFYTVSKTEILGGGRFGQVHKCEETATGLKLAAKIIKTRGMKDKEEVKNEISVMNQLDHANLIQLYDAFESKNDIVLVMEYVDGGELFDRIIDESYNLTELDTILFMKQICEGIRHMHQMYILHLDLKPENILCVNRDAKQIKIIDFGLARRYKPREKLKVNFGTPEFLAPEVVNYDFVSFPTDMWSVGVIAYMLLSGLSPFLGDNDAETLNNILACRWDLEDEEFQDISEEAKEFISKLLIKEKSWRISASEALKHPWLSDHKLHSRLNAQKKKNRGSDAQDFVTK

[6] = molecular target: Cyclin-dependent kinase 2 (Homo sapiens) (UniProt P24941); conditions: Compound concentration 1000.0 nM
[7] = molecular target: Receptor tyrosine-protein kinase erbB-2 (Homo sapiens) (UniProt P04626); conditions: Compound concentration 1000.0 nM
[8] = system: Hepatocyte growth factor receptor (Homo sapiens), P08581 [M1250T]; conditions: Compound concentration 1000.0 nM
[9] = molecular target: Mitogen-activated protein kinase kinase kinase kinase 3 (Homo sapiens) (UniProt Q8IVH8); conditions: Compound concentration 1000.0 nM
[10] = system: Receptor-type tyrosine-protein kinase FLT3 (Homo sapiens), P36888 [UNDEFINED MUTATION]; conditions: Compound concentration 1000.0 nM
[11] = molecular target: Aurora kinase B (Homo sapiens) (UniProt Q96GD4); conditions: Compound concentration 1000.0 nM
[12] = system: Tyrosine-protein kinase ABL1 (Homo sapiens), P00519 [T315I]; conditions: Compound concentration 1000.0 nM
[13] = molecular target: Casein kinase I isoform gamma-2 (Homo sapiens) (UniProt P78368); conditions: Compound concentration 1000.0 nM
[14] = molecular target: RAC-gamma serine/threonine-protein kinase (Homo sapiens) (UniProt Q9Y243); conditions: Compound concentration 1000.0 nM
[15] = molecular target: Serine/threonine-protein kinase TAO3 (Homo sapiens) (UniProt Q9H2K8); conditions: Compound concentration 1000.0 nM
[16] = molecular target: Serine/threonine-protein kinase D3 (Homo sapiens) (UniProt O94806); conditions: Compound concentration 1000.0 nM
[17] = molecular target: SRSF protein kinase 1 (Homo sapiens) (UniProt Q96SB4); conditions: Compound concentration 1000.0 nM
[18] = molecular target: Ephrin type-A receptor 4 (Homo sapiens) (UniProt P54764); conditions: Compound concentration 1000.0 nM
[19] = molecular target: Epidermal growth factor receptor (Homo sapiens) (UniProt P00533); conditions: Compound concentration 1000.0 nM
[20] = molecular target: Testis-specific serine/threonine-protein kinase 3 (Homo sapiens) (UniProt Q96PN8); conditions: Compound concentration 1000.0 nM
Chain of Testis-specific serine/threonine-protein kinase 3 (Homo sapiens) (Q96PN8 whole entry): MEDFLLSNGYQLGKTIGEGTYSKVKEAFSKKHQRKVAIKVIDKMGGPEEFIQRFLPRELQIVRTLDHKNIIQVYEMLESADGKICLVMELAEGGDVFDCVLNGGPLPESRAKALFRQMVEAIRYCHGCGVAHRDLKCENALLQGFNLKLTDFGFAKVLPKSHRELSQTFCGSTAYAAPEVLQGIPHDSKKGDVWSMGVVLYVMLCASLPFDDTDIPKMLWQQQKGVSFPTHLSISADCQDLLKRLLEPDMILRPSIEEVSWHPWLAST

[21] = molecular target: Dual specificity protein kinase CLK3 (Homo sapiens) (UniProt P49761); conditions: Compound concentration 1000.0 nM
[22] = molecular target: Serine/threonine-protein kinase Chk1 (Homo sapiens) (UniProt O14757); conditions: Compound concentration 1000.0 nM
[23] = system: Epidermal growth factor receptor (Homo sapiens), P00533 [G719S]; conditions: Compound concentration 1000.0 nM
[24] = molecular target: Serine/threonine-protein kinase PLK1 (Homo sapiens) (UniProt P53350); conditions: Compound concentration 1000.0 nM
Chain of Serine/threonine-protein kinase PLK1 (Homo sapiens) (P53350 whole entry): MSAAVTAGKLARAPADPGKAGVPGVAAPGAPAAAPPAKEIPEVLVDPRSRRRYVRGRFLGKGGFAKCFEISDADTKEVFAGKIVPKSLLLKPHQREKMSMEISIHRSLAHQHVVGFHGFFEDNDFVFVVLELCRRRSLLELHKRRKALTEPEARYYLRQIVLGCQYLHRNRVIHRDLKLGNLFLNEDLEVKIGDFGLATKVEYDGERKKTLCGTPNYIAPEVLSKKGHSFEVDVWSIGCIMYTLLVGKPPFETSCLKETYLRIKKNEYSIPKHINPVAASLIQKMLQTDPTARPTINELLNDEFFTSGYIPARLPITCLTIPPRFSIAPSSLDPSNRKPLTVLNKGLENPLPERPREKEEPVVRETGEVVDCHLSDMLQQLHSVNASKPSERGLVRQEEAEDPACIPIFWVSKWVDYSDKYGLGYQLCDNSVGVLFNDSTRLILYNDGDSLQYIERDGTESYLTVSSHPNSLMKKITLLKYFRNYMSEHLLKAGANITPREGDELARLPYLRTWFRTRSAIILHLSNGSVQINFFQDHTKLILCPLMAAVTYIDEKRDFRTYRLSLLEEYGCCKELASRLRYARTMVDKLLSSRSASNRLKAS

[25] = molecular target: Tyrosine-protein kinase ABL2 (Homo sapiens) (UniProt P42684); conditions: Compound concentration 1000.0 nM
[26] = system: Mast/stem cell growth factor receptor Kit (Homo sapiens), P10721 [V559D]; conditions: Compound concentration 1000.0 nM
Chain of Mast/stem cell growth factor receptor Kit (Homo sapiens), P10721 [V559D] (P10721 whole entry V559D): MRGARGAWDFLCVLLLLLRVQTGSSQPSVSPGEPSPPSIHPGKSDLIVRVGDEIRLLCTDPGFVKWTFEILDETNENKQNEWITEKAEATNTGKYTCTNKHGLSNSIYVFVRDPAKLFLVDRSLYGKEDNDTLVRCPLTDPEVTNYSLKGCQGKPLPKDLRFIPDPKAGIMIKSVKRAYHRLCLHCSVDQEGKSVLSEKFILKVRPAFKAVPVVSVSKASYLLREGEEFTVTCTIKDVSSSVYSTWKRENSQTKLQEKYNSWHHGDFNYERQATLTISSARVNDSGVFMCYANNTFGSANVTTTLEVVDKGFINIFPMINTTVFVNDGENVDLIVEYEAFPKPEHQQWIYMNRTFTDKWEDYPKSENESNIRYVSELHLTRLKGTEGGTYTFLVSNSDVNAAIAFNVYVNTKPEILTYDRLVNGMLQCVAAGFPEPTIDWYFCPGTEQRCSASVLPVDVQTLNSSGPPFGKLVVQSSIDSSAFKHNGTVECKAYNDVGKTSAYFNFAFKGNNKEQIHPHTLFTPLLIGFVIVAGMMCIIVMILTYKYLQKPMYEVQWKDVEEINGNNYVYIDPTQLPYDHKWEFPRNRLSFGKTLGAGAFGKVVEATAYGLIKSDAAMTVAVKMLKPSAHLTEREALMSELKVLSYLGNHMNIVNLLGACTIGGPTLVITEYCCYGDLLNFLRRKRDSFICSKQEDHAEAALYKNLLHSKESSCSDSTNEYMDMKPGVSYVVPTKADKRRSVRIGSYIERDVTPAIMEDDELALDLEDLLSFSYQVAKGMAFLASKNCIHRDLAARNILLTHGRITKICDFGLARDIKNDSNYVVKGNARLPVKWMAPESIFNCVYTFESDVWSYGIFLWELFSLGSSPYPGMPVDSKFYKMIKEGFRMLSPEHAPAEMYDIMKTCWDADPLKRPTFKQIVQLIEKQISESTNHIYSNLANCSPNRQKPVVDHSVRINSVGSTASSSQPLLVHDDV

[27] = molecular target: GABA-A receptor; anion channel (Rattus norvegicus) (UniProt O09028+P15431+P18506+P18508+P19969+P20236+P23574+P23576+P28471+P28473+P30191+P62813+P63079+P63138+Q91ZM7+Q9ES14); conditions: Compound concentration 10.0 uM
[28] = molecular target: Tyrosine-protein kinase ABL1 (Homo sapiens) (UniProt P00519); conditions: Compound concentration 1000.0 nM
[29] = system: Receptor-type tyrosine-protein kinase FLT3 (Homo sapiens), P36888 [D835Y]; conditions: Compound concentration 1000.0 nM
[30] = molecular target: Serine/threonine-protein kinase RIO3 (Homo sapiens) (UniProt O14730); conditions: Compound concentration 1000.0 nM
[31] = molecular target: Cyclin-dependent kinase-like 3 (Homo sapiens) (UniProt Q8IVW4); conditions: Compound concentration 1000.0 nM
[32] = system: Epidermal growth factor receptor (Homo sapiens), P00533 [L861Q]; conditions: Compound concentration 1000.0 nM
[33] = molecular target: Ephrin type-A receptor 8 (Homo sapiens) (UniProt P29322); conditions: Compound concentration 1000.0 nM
[34] = molecular target: Protein kinase C iota type (Homo sapiens) (UniProt P41743); conditions: Compound concentration 1000.0 nM
[35] = molecular target: Alpha-1B adrenergic receptor (Homo sapiens) (UniProt P35368); conditions: Compound concentration 10.0 uM
[36] = molecular target: Tyrosine-protein kinase Fyn (Homo sapiens) (UniProt P06241); conditions: Compound concentration 1000.0 nM
[37] = molecular target: Myosin-IIIb (Homo sapiens) (UniProt Q8WXR4); conditions: Compound concentration 1000.0 nM
[38] = system: Receptor-type tyrosine-protein kinase FLT3 (Homo sapiens), P36888 [D835V]; conditions: Compound concentration 1000.0 nM
[39] = molecular target: Tyrosine-protein kinase JAK3 (Homo sapiens) (UniProt P52333); conditions: Compound concentration 1000.0 nM
[40] = molecular target: Serine/threonine-protein kinase Nek7 (Homo sapiens) (UniProt Q8TDX7); conditions: Compound concentration 1000.0 nM
Chain of Serine/threonine-protein kinase Nek7 (Homo sapiens) (Q8TDX7 whole entry, looked up): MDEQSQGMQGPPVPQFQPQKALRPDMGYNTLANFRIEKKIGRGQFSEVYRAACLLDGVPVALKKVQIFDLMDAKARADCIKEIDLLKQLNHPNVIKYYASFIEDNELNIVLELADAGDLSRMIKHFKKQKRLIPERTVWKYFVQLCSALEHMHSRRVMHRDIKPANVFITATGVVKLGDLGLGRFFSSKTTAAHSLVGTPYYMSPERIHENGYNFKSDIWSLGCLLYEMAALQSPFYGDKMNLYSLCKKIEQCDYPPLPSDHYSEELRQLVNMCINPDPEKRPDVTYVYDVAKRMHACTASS

[41] = molecular target: RAC-beta serine/threonine-protein kinase (Homo sapiens) (UniProt P31751); conditions: Compound concentration 1000.0 nM
[42] = molecular target: Calcium/calmodulin-dependent protein kinase type II subunit beta (Homo sapiens) (UniProt Q13554); conditions: Compound concentration 1000.0 nM
[43] = system: Mast/stem cell growth factor receptor Kit (Homo sapiens), P10721 [L576P]; conditions: Compound concentration 1000.0 nM
Chain of Mast/stem cell growth factor receptor Kit (Homo sapiens), P10721 [L576P] (P10721 whole entry L576P): as the sequence (P10721 whole entry V559D) above, with D559V, L576P counted along it

[44] = molecular target: STE20-like serine/threonine-protein kinase (Homo sapiens) (UniProt Q9H2G2); conditions: Compound concentration 1000.0 nM
Chain of STE20-like serine/threonine-protein kinase (Homo sapiens) (Q9H2G2 whole entry, looked up): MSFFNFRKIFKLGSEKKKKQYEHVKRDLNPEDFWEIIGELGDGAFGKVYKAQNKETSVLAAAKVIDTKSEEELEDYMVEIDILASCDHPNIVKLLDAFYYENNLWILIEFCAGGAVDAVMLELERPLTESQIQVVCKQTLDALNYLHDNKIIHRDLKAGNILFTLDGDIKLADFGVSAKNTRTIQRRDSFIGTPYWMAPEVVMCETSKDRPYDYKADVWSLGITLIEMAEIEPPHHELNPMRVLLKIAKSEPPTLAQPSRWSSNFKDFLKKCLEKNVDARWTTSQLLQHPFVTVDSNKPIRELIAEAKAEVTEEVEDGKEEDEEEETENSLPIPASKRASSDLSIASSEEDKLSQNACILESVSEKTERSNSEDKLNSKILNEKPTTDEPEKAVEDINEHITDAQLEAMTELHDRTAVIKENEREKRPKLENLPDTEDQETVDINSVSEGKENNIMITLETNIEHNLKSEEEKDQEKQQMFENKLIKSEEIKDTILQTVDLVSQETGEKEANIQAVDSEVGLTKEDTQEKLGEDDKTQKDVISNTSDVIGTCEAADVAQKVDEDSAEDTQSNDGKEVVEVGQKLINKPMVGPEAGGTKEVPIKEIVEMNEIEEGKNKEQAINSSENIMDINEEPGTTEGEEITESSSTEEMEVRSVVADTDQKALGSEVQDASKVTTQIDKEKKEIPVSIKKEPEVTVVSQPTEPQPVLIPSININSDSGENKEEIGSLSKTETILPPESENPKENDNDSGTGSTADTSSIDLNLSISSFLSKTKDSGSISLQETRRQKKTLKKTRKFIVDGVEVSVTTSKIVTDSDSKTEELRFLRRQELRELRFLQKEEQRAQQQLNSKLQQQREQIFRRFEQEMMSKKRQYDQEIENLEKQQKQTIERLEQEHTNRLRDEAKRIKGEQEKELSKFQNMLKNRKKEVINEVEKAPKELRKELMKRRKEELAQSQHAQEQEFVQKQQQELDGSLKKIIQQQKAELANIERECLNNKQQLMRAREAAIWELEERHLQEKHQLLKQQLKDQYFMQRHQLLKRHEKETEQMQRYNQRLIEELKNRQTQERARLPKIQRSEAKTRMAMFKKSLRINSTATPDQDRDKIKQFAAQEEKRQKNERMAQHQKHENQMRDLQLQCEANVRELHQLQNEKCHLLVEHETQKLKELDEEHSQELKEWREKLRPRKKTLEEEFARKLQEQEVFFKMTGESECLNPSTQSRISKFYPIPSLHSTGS

Chain of Serine/threonine-protein kinase Nek10 (Homo sapiens) (Q6ZWH5 whole entry, the tested form may be a part): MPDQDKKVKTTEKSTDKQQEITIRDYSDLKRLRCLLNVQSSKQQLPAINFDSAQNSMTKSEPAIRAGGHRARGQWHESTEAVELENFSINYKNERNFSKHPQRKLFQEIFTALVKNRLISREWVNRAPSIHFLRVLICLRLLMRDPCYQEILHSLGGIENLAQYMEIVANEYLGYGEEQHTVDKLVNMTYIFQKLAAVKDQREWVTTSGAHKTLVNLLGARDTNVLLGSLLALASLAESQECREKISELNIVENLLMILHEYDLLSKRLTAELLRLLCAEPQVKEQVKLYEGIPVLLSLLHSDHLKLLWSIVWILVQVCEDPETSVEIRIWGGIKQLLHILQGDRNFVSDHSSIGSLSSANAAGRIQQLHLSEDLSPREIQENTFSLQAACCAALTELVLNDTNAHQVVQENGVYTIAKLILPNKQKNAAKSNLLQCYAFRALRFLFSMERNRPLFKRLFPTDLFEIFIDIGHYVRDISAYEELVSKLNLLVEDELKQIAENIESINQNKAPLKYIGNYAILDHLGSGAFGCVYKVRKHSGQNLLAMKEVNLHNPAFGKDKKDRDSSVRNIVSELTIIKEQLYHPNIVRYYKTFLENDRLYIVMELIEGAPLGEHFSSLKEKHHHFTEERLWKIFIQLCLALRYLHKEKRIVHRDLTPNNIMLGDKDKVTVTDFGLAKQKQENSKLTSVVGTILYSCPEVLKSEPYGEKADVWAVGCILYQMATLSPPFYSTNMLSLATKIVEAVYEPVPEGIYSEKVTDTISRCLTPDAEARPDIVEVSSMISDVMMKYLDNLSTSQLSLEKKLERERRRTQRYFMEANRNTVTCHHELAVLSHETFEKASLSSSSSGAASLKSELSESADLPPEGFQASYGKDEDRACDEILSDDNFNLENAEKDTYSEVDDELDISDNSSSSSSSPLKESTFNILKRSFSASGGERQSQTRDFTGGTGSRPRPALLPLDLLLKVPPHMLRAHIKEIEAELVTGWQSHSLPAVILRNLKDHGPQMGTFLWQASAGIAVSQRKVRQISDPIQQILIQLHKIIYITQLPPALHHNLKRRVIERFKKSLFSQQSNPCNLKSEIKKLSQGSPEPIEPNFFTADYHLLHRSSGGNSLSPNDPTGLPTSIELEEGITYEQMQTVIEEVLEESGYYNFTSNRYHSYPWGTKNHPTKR

O=c1nc(-c2ccccn2)sc2ccccc12 [BTZO-1]
residual activity [1]: 100%
residual activity [2]: 88%
residual activity [3]: 100%
residual activity [4]: 100%
residual activity [5]: 87%
residual activity [6]: 96%
residual activity [7]: 65%
residual activity [8]: 98%
residual activity [9]: 90%
residual activity [10]: 81%
residual activity [11]: 82%
residual activity [12]: 100%
residual activity [13]: 74%
residual activity [14]: 100%
residual activity [15]: 73%
residual activity [16]: 81%
residual activity [17]: 83%
residual activity [18]: 100%
residual activity [19]: 70%
residual activity [20]: 86%
residual activity [21]: 96%
residual activity [22]: 85%
residual activity [23]: 71%
residual activity [24]: 100%
residual activity [25]: 87%
residual activity [26]: 95%
inhibition [27]: 55.9%
residual activity [28]: 89%
residual activity [29]: 100%
residual activity [30]: 99%
residual activity [31]: 88%
residual activity [32]: 68%
residual activity [33]: 78%
residual activity [34]: 100%
inhibition [35]: 9.84%
residual activity [36]: 100%
residual activity [37]: 79%
residual activity [38]: 100%
residual activity [39]: 100%
residual activity [40]: 75%
residual activity [41]: 100%
residual activity [42]: 100%
residual activity [43]: 86%
residual activity [44]: 85%

O=C1NC(c2ccccn2)Sc2ccccc21 (stereo not drawn) [BTZO-4]
residual activity [1]: 100%
residual activity [2]: 78%
residual activity [3]: 100%
residual activity [4]: 100%
residual activity [5]: 90%
residual activity [6]: 81%
residual activity [7]: 71%
residual activity [8]: 72%
residual activity [9]: 100%
residual activity [10]: 83%
residual activity [11]: 100%
residual activity [12]: 93%
residual activity [13]: 88%
residual activity [14]: 100%
residual activity [15]: 77%
residual activity [16]: 100%
residual activity [17]: 73%
residual activity [18]: 89%
residual activity [19]: 82%
residual activity [20]: 88%
residual activity [21]: 97%
residual activity [22]: 88%
residual activity [23]: 82%
residual activity [24]: 100%
residual activity [25]: 85%
residual activity [26]: 100%
inhibition [27]: 6.34%
residual activity [28]: 72%
residual activity [29]: 86%
residual activity [30]: 91%
residual activity [31]: 88%
residual activity [32]: 77%
residual activity [33]: 63%
residual activity [34]: 72%
inhibition [35]: -5.82%
residual activity [36]: 100%
residual activity [37]: 96%
residual activity [38]: 100%
residual activity [39]: 100%
residual activity [40]: 68%
residual activity [41]: 92%
residual activity [42]: 100%
residual activity [43]: 89%
residual activity [44]: 76%
